Experimental data taken from patent US20240383875A1, “Benzimidazole Pyridine Derivatives” (Hoffmann-La Roche Inc., priority 2022, published 2024).

Assays:
Type in all cases: biochemical
SIK3 = SIK3 (Homo sapiens, UniProt Q9Y2K2); experiment: Enzymatic activity assay SIK3, RapidFire mass spectrometry (phosphorylation of CHK-peptide); details: RapidFire MS, inhibition of SIK3; read-out: SIK3 RF IC50
How it was run: (§1)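 Compounds (12-point, 3-fold, generally 30 μM to 170 pM) were pre-incubated 30 min at ambient temperature with SIK1 (5 nM), SIK2 (0.5 nM) or SIK3 (1.5 nM) in HEPES pH 7.0/magnesium acetate buffer. CHK-peptide (10 μM solution) and ATP (100 μM solution) were then added for 45 min before formic acid quench.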

SIK1 = SIK1 (Homo sapiens, UniProt P57059); experiment: Enzymatic activity assay SIK1, RapidFire mass spectrometry (phosphorylation of CHK-peptide); details: RapidFire MS, inhibition of SIK1; read-out: SIK1 RF IC50
SIK1, sequence (P57059 whole entry): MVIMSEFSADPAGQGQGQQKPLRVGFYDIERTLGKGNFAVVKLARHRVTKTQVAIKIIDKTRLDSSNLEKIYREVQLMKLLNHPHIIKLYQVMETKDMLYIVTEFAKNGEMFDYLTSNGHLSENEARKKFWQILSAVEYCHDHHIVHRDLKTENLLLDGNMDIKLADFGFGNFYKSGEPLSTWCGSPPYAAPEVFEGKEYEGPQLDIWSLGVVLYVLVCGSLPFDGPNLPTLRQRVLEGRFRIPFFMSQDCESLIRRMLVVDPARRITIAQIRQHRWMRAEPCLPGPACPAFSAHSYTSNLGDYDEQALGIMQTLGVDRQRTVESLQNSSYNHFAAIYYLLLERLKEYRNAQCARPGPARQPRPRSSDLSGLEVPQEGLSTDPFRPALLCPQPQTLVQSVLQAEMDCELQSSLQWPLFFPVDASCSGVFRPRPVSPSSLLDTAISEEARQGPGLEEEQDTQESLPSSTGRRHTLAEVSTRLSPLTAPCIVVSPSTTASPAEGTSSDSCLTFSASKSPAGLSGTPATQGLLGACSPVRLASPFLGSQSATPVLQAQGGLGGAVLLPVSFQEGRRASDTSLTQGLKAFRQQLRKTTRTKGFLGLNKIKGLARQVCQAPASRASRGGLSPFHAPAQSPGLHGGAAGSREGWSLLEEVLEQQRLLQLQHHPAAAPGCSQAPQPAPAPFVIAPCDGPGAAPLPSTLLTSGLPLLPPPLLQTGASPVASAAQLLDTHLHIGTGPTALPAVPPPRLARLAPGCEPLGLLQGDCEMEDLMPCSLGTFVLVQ
How it was run: as §1

SIK2 = SIK2 (Homo sapiens, UniProt Q9H0K1); experiment: Enzymatic activity assay SIK2, RapidFire mass spectrometry (phosphorylation of CHK-peptide); details: RapidFire MS, inhibition of SIK2; read-out: SIK2 RF IC50
SIK2, sequence (Q9H0K1 whole entry): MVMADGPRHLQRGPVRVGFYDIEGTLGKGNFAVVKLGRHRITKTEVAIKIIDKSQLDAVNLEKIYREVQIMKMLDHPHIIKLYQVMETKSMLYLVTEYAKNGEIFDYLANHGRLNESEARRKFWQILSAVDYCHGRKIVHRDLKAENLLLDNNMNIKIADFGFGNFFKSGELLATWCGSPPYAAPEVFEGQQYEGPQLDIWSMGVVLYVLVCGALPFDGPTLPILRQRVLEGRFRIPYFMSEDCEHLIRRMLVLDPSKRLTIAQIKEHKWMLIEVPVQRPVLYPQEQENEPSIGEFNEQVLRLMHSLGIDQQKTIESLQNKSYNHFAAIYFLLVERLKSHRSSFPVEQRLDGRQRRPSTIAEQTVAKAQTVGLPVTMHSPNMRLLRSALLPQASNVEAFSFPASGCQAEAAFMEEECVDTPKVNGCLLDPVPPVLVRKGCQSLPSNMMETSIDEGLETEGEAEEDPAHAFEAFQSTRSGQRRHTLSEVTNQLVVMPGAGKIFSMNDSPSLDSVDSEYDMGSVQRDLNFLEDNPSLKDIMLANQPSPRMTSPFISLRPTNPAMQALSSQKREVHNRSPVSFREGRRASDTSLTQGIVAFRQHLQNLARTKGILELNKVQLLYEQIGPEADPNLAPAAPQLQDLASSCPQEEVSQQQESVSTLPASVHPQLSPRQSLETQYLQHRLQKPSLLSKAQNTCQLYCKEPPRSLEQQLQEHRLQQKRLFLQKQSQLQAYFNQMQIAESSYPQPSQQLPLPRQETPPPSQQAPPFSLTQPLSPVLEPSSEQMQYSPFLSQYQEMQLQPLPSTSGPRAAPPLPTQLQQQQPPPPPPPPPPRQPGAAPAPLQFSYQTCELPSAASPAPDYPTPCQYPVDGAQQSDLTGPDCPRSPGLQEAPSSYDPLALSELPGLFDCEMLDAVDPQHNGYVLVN
How it was run: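 SIK2 (0.5 nM) in pH 7.0 HEPES buffer with 10 mM Mg acetate phosphorylates CHK-peptide (10 μM solution) with 100 μM ATP solution, 45 min ambient, then formic acid quench.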

SIK3, sequence (Q9Y2K2 whole entry): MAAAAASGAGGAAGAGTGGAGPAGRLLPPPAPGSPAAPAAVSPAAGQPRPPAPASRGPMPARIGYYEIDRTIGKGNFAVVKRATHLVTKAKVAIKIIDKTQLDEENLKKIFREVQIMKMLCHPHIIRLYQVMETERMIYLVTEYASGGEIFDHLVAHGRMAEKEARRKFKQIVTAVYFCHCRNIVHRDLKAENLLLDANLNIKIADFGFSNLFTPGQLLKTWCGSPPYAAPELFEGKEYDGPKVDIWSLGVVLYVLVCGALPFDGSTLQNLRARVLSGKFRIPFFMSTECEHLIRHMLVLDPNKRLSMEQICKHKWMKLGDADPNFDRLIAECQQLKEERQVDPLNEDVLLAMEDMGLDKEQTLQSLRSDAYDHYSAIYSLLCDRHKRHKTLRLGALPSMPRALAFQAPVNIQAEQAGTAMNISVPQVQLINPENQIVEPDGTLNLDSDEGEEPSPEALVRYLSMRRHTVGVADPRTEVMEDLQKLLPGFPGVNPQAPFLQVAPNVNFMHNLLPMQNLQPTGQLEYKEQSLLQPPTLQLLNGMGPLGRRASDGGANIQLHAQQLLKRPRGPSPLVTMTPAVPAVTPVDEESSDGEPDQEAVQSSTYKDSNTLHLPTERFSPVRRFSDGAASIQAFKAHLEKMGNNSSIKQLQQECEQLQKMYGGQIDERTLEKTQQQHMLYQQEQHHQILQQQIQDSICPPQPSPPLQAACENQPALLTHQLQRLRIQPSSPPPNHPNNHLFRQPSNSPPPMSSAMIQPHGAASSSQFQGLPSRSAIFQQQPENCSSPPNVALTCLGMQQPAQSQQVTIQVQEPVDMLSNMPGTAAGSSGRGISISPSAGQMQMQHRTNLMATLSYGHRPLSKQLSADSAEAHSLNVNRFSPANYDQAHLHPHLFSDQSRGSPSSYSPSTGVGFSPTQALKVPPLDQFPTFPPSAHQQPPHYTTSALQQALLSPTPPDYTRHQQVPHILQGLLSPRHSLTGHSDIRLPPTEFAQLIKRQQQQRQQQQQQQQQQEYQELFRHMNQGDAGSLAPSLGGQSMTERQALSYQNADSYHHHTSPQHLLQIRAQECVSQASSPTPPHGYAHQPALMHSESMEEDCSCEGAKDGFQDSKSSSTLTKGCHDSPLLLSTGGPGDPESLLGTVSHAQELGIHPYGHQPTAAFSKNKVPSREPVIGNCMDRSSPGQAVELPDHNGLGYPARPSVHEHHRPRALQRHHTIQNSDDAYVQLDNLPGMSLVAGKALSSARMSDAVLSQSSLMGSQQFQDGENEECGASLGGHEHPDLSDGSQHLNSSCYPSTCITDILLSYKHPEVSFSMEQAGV

Compound	IC50 (SIK3)	IC50 (SIK1)	IC50 (SIK2)
Cc1ccc(Nc2ccc3c(c2)ncn3-c2ccc(C(C)O)c(N3CCNC(C(F)(F)F)C3)n2)nn1 (stereo not drawn) [Example 331, 1-[6-[5-[(6-methylpyridazin-3-yl)amino]benzimidazol-1-yl]-2-[3-(trifluoromethyl)piperazin-1-yl]-3-pyridyl]ethanol]	9.3 nM	3340 nM	71.5 nM
Cc1ccc(Nc2ccc3c(c2)ncn3-c2ccc(C(C)O)c(-n3nc(C(F)F)c(C)c3C)n2)nn1 (stereo not drawn) [Example 369, 1-[2-[3-(difluoromethyl)-4,5-dimethyl-pyrazol-1-yl]-6-[5-[(6-methylpyridazin-3-yl)amino]benzimidazol-1-yl]-3-pyridyl]ethanol]	4.1 nM	1320 nM	8.2 nM
CCn1ncc(-c2nc(-n3cnc4cc(Nc5ccc(C)nn5)ccc43)ccc2C(C)O)c1C (stereo not drawn) [Example 271, 1-[2-(1-Ethyl-5-methyl-pyrazol-4-yl)-6-[5-[(6-methylpyridazin-3-yl)amino]benzimidazol-1-yl]-3-pyridyl]ethanol; formic acid]	2.1 nM	895 nM	7.3 nM
Cc1ccc(Nc2cc3ncn(-c4ccc(C(C)O)c(-n5nc(C#N)cc5C)n4)c3cc2F)nn1 (stereo not drawn) [Example 93, 1-[6-[6-Fluoro-5-[(6-methylpyridazin-3-yl)amino]benzimidazol-1-yl]-3-(1-hydroxyethyl)-2-pyridyl]-5-methyl-pyrazole-3-carbonitrile]	0.6 nM	97 nM	0.5 nM
CCC(O)c1ccc(-n2cnc3cc(OC)c(OC)cc32)nc1-c1ccc(F)cc1OC (stereo not drawn) [Example 18, 1-(6-(5,6-Dimethoxy-1H-benzo[d]imidazol-1-yl)-2-(4-fluoro-2-methoxyphenyl)pyridin-3-yl)propan-1-ol]	2880 nM	1000 nM	988 nM
COc1cc(C)n(-c2nc(-n3cnc4cc(Nc5ccc(C)nn5)ccc43)ccc2C(C)O)n1 (stereo not drawn) [Example 214, 1-[2-(3-Methoxy-5-methyl-pyrazol-1-yl)-6-[5-[(6-methylpyridazin-3-yl)amino]benzimidazol-1-yl]-3-pyridyl]ethanol; formic acid]	3.5 nM	1430 nM	20.7 nM
COCCOc1ccc(Nc2ccc3c(c2)ncn3-c2ccc(C(C)O)c(-n3nc(C#N)cc3C)n2)nn1 (stereo not drawn) [Example 193, 1-[3-(1-Hydroxyethyl)-6-[5-[[6-(2-methoxyethoxy)pyridazin-3-yl]amino]benzimidazol-1-yl]-2-pyridyl]-5-methyl-pyrazole-3-carbonitrile]	1.9 nM	68 nM	3.2 nM
Cc1cc(C#N)nn1-c1nc(-n2cnc3cc(N[C@H]4CNC[C@H]4F)c(F)cc32)ccc1C(C)O (stereo partly drawn) [Example 166, 1-[6-[6-Fluoro-5-[[(3S,4R)-4-fluoropyrrolidin-3-yl]amino]benzimidazol-1-yl]-3-(1-hydroxyethyl)-2-pyridyl]-5-methyl-pyrazole-3-carbonitrile; formic acid]	40.8 nM	681 nM	83.2 nM
COc1cc2ncn(-c3ccc(C(O)C4CC4)c(-c4ccc(F)cc4OC)n3)c2cc1OC (stereo not drawn) [Example 23, Cyclopropyl(6-(5,6-dimethoxy-1H-benzo[d]imidazol-1-yl)-2-(4-fluoro-2-methoxyphenyl)pyridin-3-yl)methanol]	9010 nM	3640 nM	3880 nM
COc1cc2ncn(-c3ccc([C@H](C)O)c(-c4ccc(C#N)cc4)n3)c2cc1OC [Example 39, (S)-4-(6-(5,6-Dimethoxy-1H-benzo[d]imidazol-1-yl)-3-(l-hydroxyethyl)pyridin-2-yl)benzonitrile]	178 nM	152 nM	24.9 nM
Cc1ccc(Nc2ccc3c(c2)ncn3-c2ccc(C(C)O)c(-c3cn(C(F)F)nc3C)n2)nn1 (stereo not drawn) [Example 149, 1-[2-[1-(Difluoromethyl)-3-methyl-pyrazol-4-yl]-6-[5-[(6-methylpyridazin-3-yl)amino]benzimidazol-1-yl]-3-pyridyl]ethanol]	1.9 nM	1290 nM	8.4 nM
Cc1ccc(Nc2ccc3ncn(-c4ccc(C(C)O)c(N5CCN(CC(F)(F)F)C(=O)C5)n4)c3c2)nn1 (stereo not drawn) [Example 137, 4-[3-(1-Hydroxyethyl)-6-[6-[(6-methylpyridazin-3-yl)amino]benzimidazol-1-yl]-2-pyridyl]-1-(2,2,2-trifluoroethyl)piperazin-2-one]	746 nM	5410 nM	1640 nM
1-[6-[5-[[5-(azetidin-1-yl)pyridazin-3-yl]amino]-6-fluoro-benzimidazol-1-yl]-2-[3-(difluoromethyl)-5-methyl-pyrazol-1-yl]-3-pyridyl]ethanol [Example 390]	16 nM	5890 nM	27.2 nM
Cc1ccc(Oc2ccc3c(c2)ncn3-c2ccc(C(C)O)c(-n3nc(C#N)cc3C)n2)nn1 (stereo not drawn) [Example 75, 1-[3-(1-Hydroxyethyl)-6-[5-(6-methylpyridazin-3-yl)oxybenzimidazol-1-yl]-2-pyridyl]-5-methyl-pyrazole-3-carbonitrile]	6.3 nM	1440 nM	38.4 nM

Further compounds by falling IC50 (SIK3), results first:

IC50 (SIK3)	IC50 (SIK1)	IC50 (SIK2)	Compound
9240 nM	8400 nM	5920 nM	CNC(=O)c1cc(C)n(-c2nc(-n3cnc4ccc(Nc5ccc(C)nn5)cc43)ccc2C(C)O)n1 (stereo not drawn) [Example 144, 1-[3-(1-Hydroxyethyl)-6-[6-[(6-methylpyridazin-3-yl)amino]benzimidazol-1-yl]-2-pyridyl]-N,5-dimethyl-pyrazole-3-carboxamide]
446 nM	20 nM	44.6 nM	Cc1cc(C#N)nn1-c1nc(-n2cnc3ccc(-c4ccc5c(n4)C(=O)N(C)C5)cc32)ccc1C(C)O (stereo not drawn) [Example 365, 1-[3-(1-hydroxyethyl)-6-[6-(6-methyl-7-oxo-5H-pyrrolo[3,4-b]pyridin-2-yl)benzimidazol-1-yl]-2-pyridyl]-5-methyl-pyrazole-3-carbonitrile]
201 nM	647 nM	245 nM	COCC(O)c1ccc(-n2cnc3ccc(Nc4ccc(C)nn4)cc32)nc1-n1nc(C#N)cc1C (stereo not drawn) [Example 235, 1-[3-(1-Hydroxy-2-methoxy-ethyl)-6-[6-[(6-methylpyridazin-3-yl)amino]benzimidazol-1-yl]-2-pyridyl]-5-methyl-pyrazole-3-carbonitrile]
95.5 nM	13300 nM	359 nM	Cc1ccc(Nc2ccc3c(c2)ncn3-c2ccc(C(C)O)c(-c3cnn4c3C(=O)NCC4)n2)nn1 (stereo not drawn) [Example 165, 3-[3-(1-Hydroxyethyl)-6-[5-[(6-methylpyridazin-3-yl)amino]benzimidazol-1-yl]-2-pyridyl]-6,7-dihydro-5H-pyrazolo[1,5-a]pyrazin-4-one]
32.2 nM	458 nM	24.7 nM	Cc1ccc(Nc2cc3ncn(-c4ccc([C@@H](C)O)c(-n5nc(C#N)cc5C)n4)c3cc2OC(F)F)nn1 [Example 403, 1-[6-[6-(difluoromethoxy)-5-[(6-methylpyridazin-3-yl)amino]benzimidazol-1-yl]-3-[(1R)-1-hydroxyethyl]-2-pyridyl]-5-methyl-pyrazole-3-carbonitrile]
15.9 nM	800 nM	6.1 nM	Cc1ccc(Nc2cc3ncn(-c4ccc(C(C)O)c(-n5nc(C#N)cc5C)n4)c3cc2C(F)(F)F)nn1 (stereo not drawn) [Example 275, 1-[3-(1-hydroxyethyl)-6-[5-[(6-methylpyridazin-3-yl)amino]-6-(trifluoromethyl)benzimidazol-1-yl]-2-pyridyl]-5-methyl-pyrazole-3-carbonitrile]
4.8 nM	1200 nM	8.3 nM	Cc1cc(C(F)F)nn1-c1nc(-n2cnc3cc(Nc4ccc(C5(C)OCCO5)nn4)c(F)cc32)ccc1C(C)O (stereo not drawn) [Example 337, 1-[2-[3-(difluoromethyl)-5-methyl-pyrazol-1-yl]-6-[6-fluoro-5-[[6-(2-methyl-1,3-dioxolan-2-yl)pyridazin-3-yl]amino]benzimidazol-1-yl]-3-pyridyl]ethanol]
2.4 nM	5 nM	2.2 nM	Cc1cnc(Nc2ccc3c(c2)ncn3-c2ccc(C(C)O)c(-n3nc(C#N)cc3C)n2)cn1 (stereo not drawn) [Example 82, 1-[3-(1-Hydroxyethyl)-6-[5-[(5-methylpyrazin-2-yl)amino]benzimidazol-1-yl]-2-pyridyl]-5-methyl-pyrazole-3-carbonitrile]
2 nM	271 nM	3.9 nM	COc1cc(C(F)F)nn1-c1nc(-n2cnc3cc(Nc4ccc(C)nn4)ccc32)ccc1C(C)O (stereo not drawn) [Example 398, 1-[2-[3-(difluoromethyl)-5-methoxy-pyrazol-1-yl]-6-[5-[(6-methylpyridazin-3-yl)amino]benzimidazol-1-yl]-3-pyridyl]ethanol]
0.9 nM	15 nM	2.3 nM	Cc1cc(C#N)nn1-c1nc(-n2cnc3cc(Nc4ccc(OC(F)F)nn4)ccc32)ccc1C(C)O (stereo not drawn) [Example 197, 1-[6-[5-[[6-(Difluoromethoxy)pyridazin-3-yl]amino]benzimidazol-1-yl]-3-(1-hydroxyethyl)-2-pyridyl]-5-methyl-pyrazole-3-carbonitrile]
0.8 nM	88 nM	1.5 nM	Cc1cc(OC(F)F)nn1-c1nc(-n2cnc3cc(Nc4ccc(C(F)F)nn4)ccc32)ccc1C(C)O (stereo not drawn) [Example 367, 1-[2-[3-(difluoromethoxy)-5-methylpyrazol-1-yl]-6-[5-[[6-(difluoromethyl)pyridazin-3-yl]amino]benzimidazol-1-yl]pyridin-3-yl]ethanol]
